Measurements reported in patent US9604987B2, “Synthesis of autophagy inducing compound and the uses thereof” (Hong Kong Baptist University, priority 2012, dated 2017).

How the values were obtained:
[1] = test system: N2a GFP-LC3 cells; test: GFP-LC3 puncta formation in N2a cells constantly expressing GFP-LC3 (confocal); format: cell-based, mouse; conditions: for pro-autophagic activity (GFP-LC3 puncta): 50 μM, 12 hours
Method: Cell imaging and puncta counting. Cells were fixed in 3.7% paraformaldehyde (158127, Sigma) for 10 minutes and mounted with FluorSave reagent. Cell images were recorded using a fluorescence microscope or confocal microscope. GFP or RFP Puncta number were counted in cells as described previously. Briefly, the GFP-LC3 or RFP-LC3 puncta in each cell were manually counted, and at least 50 cells were randomly selected for counting in each group. The data presented were from one representative experiment of at least 3 independent experiments.
Further, a neuroblastoma cell line N2a constantly expressing GFP-LC3 (a standard autophagy marker protein) is established. The formation of GFP-LC3 puncta under Cory B treatment is observed under a confocal microscope. Data is presented as the mean±SEM of one representative experiment from three independent experiments. (*p<0.05, ***p<0.001, one-way ANOVA for multiple comparison and Tukey's test as post hoc test).
To confirm that enhancement of autophagy markers by Cory B is due to induction of autophagy rather than blockage of autophagosome maturation, N2a cells are treated with 25 μM Cory B or 30 μM lysosome inhibitor CQ together with Cory B for 12 hours. Cell lysates are subject to western blot analysis. Data are presented as the mean±SEM from 3 independent experiments (***p<0.001, one-way ANOVA for multiple comparison and Tukey's test as post hoc test). Both LC3-II levels and the number of GFP-LC3 puncta in the Cory B and CQ co-treatment group are much higher than in the CQ-alone treatment group (FIG. 2A-D). Meanwhile, Cory B induces GFP-LC3 puncta formation is abolished by treatment of 5 mM autophagy inhibitor 3-MA for 24 hours (FIG. 2C, D). Cells were fixed in 4% paraformaldehyde and analyzed under a confocal microscope. Data are presented as the mean±SEM of one representative experiment from three independent experiments. (***p<0.001, one-way ANOVA for multiple comparison and Tukey's test as post hoc test). […] Thus, Cory B is indeed an autophagy inducer in neuronal cells.
In order to observe the pro-autophagic activity of CB6 and CB8 intuitively, N2a cells constantly expressing GFP-LC3 are treated with 50 μM Cory B, CB6 and CB8 for 12 hours respectively. The cells are than fixed with 4% paraformaldehyde (Sigma, 158127) for 10 minutes, and then mounted with VECTASHIELD hardset anti-fade mounting medium. The mounted samples are then subjected to confocal microscopy analysis.
After designated treatments, N2a cells constantly expressing GFP-LC3 were fixed with 4% paraformaldehyde (Sigma, 158127) for 10 min, and then mounted with VECTASHIELD hardset antifade mounting medium. The mounted samples were then subjected to confocal microscopy analysis.

[2] = test system: rat primary cortical neurons; test: LC3 immunoblot in primary cultured rat cortical neurons; format: cell-based; conditions: different concentrations, 24 hours
Method: To further confirm the pro-autophagic effect of CB6 and CB8 on primary neurons, rat primary cortical neurons isolated from E17 rats are used in the study. The primary neurons are treated with different concentrations of CB6 and CB8 respectively for 24 hours, and autophagic markers LC3 is detected by immunoblot analysis.
The E16 pregnant rat was anesthetized by intraperitoneal injection with 3% chloral hydrate in normal saline (1 ml/100 g bdw). The uterus containing embryos were dissected and transferred to a Petri dish, and then the embryos were collected on a new petri dish containing ice cold PBS. The brains of the embryos were then dissected under stereoscope and the cortices of the brains were placed in a Petri dish containing ice cold 10% FBS DMEM. The meninges of the cortices were removed carefully and then transferred to a 15 ml tube. Total 5 ml of digestion solution (1.25% Trypsin diluted with DMEM/F12 medium) were added into the tube containing meninges-free cortices and then incubated at 37° C. for 15 min. The digestion was stopped by adding 10% FBS DMEM/F12 supplemented with 10 μg/ml DNase (Sigma, DN25). […] The viable cells without staining with typan blue were then counted under microscope. […]

[3] = test system: Drosophila fat body; test: Atg8a-EGFP puncta in Drosophila fat body (confocal); format: in vivo; conditions: L3 larvae, 100 μM, 6 hours
Method: To further test whether CB6 and CB8 could induce autophagy in vivo, Drosolphila expressing Atg8a-GFP (Atg8a, Drosophila homologue of LC3) are obtained by crossing Cg-GAL4, a GAL4 line drives transgene expression in fat body, with UAS-Atg8a-EGFP. Crossed flies are allowed to lay eggs for 1 hour, 90 hours later, the L3 larvae are collected and treated with 100 μM of Cory B, CB6 and CB8 for 6 hours respectively. After treatment, the fat body lobes of the larvae are harvested with fine forceps and fixed with 4% PFA in PBS at room temperature for 15 minutes. Fat body lobes are then washed with PBS three times and subsequently mounted with VECTASHIELD hardset anti-fade mounting medium. The slides are then subjected to confocal microscopy analysis.
Crossed flies were allowed to lay eggs for 1 hr, 90 hrs later, the L3 larvae were collected for further treatment. The compounds were firstly dissolved in DMSO and then diluted to the desired concentration with ddH2O and then mixed thoroughly with instant fly food. The L3 larvae were placed in the prepared food and received treatment for 6 hrs. After treatment, the fat body lobes of the larvae were harvested with fine forceps and fixed with 4% PFA in PBS at room temperature for 15 min. Fat body lobes were then washed with PBS three times and subsequently mounted with VECTASHIELD hardset antifade mounting medium. […]

Row | Compound | GFP-LC3 puncta formation in presence of autophagy inhibitor 3-MA ([1]; 5 mM 3-MA, 24 hours) | GFP-LC3 puncta formation ([1]; N2a GFP-LC3 cells, Cory B treatment) | pro-autophagic activity (GFP-LC3 puncta) [1] | autophagy (LC3 immunoblot) [2] | autophagy in vivo (Atg8a-EGFP puncta) [3]
1 | CC[C@@H]1CN2CC[C@]3(C(=O)Nc4ccccc43)C2C[C@@H]1C(=COC)C(=O)OC (some centres unmarked) [Cory B, Corynoxine B] | abolished | induces massive GFP-LC3 puncta formation |  |  | 
2 | CCCN1C(=O)[C@]2(CCN3C[C@@H](CC)[C@@H](/C(=C\OC)C(=O)OC)C[C@H]32)c2ccccc21 [CB6] |  |  | confirmed to be autophagy inducers | induced autophagy | able to induce autophagy
3 | C=CCN1C(=O)[C@]2(CCN3C[C@@H](CC)[C@@H](/C(=C\OC)C(=O)OC)C[C@H]32)c2ccccc21 [CB8] |  |  | confirmed to be autophagy inducers | induced autophagy | able to induce autophagy
